We go through 14 compounds from patent US7902354B2, “Lapachone compounds and methods of use thereof” (ArQule, Inc., priority 2006, dated 2011).

For assay [1], the system named is PACA-2 human pancreatic carcinoma cells. As to the kind of experiment: MTS cell viability assay, PACA-2 human pancreatic carcinoma cells. The conditions noted are these: PACA-2, 4 h compound incubation, MTS, read-out: IC50 Values, Cancerous Cells, Pancreas PACA-2. The format is cell-based. In general terms: Tetrazolium assays rely on reduction of a dye to a coloured formazan, in cell work by metabolically active cells.

Assay [2] has as its system DU-145 human prostate carcinoma cells. As to the kind of experiment: MTS cell viability assay, DU-145 human prostate carcinoma cells. The class given is cell-based. Conditions: DU-145, 4 h compound incubation, MTS, read-out: IC50 Values, Cancerous Cells, Prostate DU-145.
Assay [3] has as its system E2F-1. As to the kind of experiment: E2F-1 induction in HT-29 cells. The format is cell-based, human. From the text:
Another effect of the compounds of the present invention is the induction or elevation of activity (e.g. elevation of the level) of one or more checkpoint molecules (i.e., a member of the E2F family of transcription factors). Studies have shown that β-lapachone induces activation of E2F1 checkpoint pathway in nuclei of cancer cells but not in normal cells, resulting in the arrest of cancer cells in G1 and/or S phase. Several compounds of the present invention were effective in activating the E2F1 checkpoint pathway (e.g. elevation of E2F1 levels), thus causing G1 and/or S phase arrest. Furthermore, the compounds of the present invention have no significant toxic effects on normal cells (See. Table 1). The assays of the present invention as shown in Table 1 and methods of measuring induction of E2F1 activity and elevation of E2F1 levels can be carried out following the descriptions found in Li et al., (2003) Proc Natl Acad Sci USA. 100(5): 2674-8 and U.S. Patent Application Publication No. 2002/0169135, both incorporated herein by reference.

Assay [4] relates to HT-29 human colon carcinoma cells. Put plainly: MTS cell viability assay, HT-29 human colon carcinoma cells. The format is cell-based. The conditions noted are these: 4 h compound incubation, read-out: IC50 Values, Cancerous Cells, Colon HT-29.
The test system of assay [5] is K-562 human leukemia cells. As to the kind of experiment: MTS cell viability assay, K-562 human leukemia cells. Conditions: K562, K-562, 4 h compound incubation, MTS, read-out: IC50 Values, Cancerous Cells, Leukemia K-562. The class given is cell-based.
The test system of assay [6] is DLD-1 human colon carcinoma cells. As to the kind of experiment: MTS cell viability assay, DLD-1 human colon carcinoma cells. Conditions: DLD-1, 4 h compound incubation, MTS, read-out: IC50 Values, Cancerous Cells, Colon DLD-1. The format is cell-based.
For assay [7], the system named is A549 human lung carcinoma cells. Put plainly: MTS cell viability assay, A549 human lung carcinoma cells. The format is cell-based. Conditions: A549, 4 h compound incubation, MTS, read-out: IC50 Values, Cancerous Cells, Lung A549.
Assay [8] concerns NCM-460 normal colon epithelial cells. As to the kind of experiment: MTS cell viability assay, NCM-460 normal colon epithelial cells. The format is cell-based. The conditions noted are these: for IC50: Homo sapiens, NCM460, NCM-460, 4 h compound incubation, MTS, read-out: IC50 Values, Normal Cells, Colon NCM-460; for Fold Selectivity (NCM-460/DLD1): ratio of IC50 NCM-460 / DLD1.

Broadly, the IC50 is the point on the concentration scale where inhibition reaches its midpoint. `O=C1C(=O)c2ccccc2C2=C1SCC1(CCN(C[C@@H](O)COc3ccc(F)cc3)CC1)O2` [Compound 181, 1′-[(2R)-3-(4-fluorophenoxy)-2-hydroxypropyl]spiro[naphtho[1,2-b][1,4]oxathiine-2,4′-piperidine]-5,6-dione]: the IC50 in assay [1] was determined as 0.909 µM; in assay [2] it was 1.52 µM; in assay [4], 3.11 µM; in assay [5], 1.32 µM; in assay [6], 0.734 µM; in assay [7], 4.93 µM. Further, the IC50 in assay [8] was 4.53 µM. The “E2F-1 Induction (HT-29)” value in assay [3] was “Yes”. For the same compound, the “Fold Selectivity (NCM-460/DLD1)” value in assay [8] turned out to be 6.2.

Turning to `O=C1C(=O)c2ccccc2C2=C1SCC1(CCN(C(=O)c3ccc(Cl)c(Cl)c3)CC1)O2` [Compound 53, 1′-(3,4-dichlorobenzoyl)spiro[naphtho[1,2-b][1,4]oxathiine-2,4′-piperidine]-5,6-dione], the IC50 in assay [1] turned out to be 1.06 µM; in assay [2], 1.37 µM; in assay [4] it was 2.21 µM; in assay [5], 1.44 µM; in assay [6] it was 1.42 µM; in assay [7], 3.83 µM. Further, the IC50 in assay [8] is 8.52 µM. Further, the “E2F-1 Induction (HT-29)” value in assay [3] was “YES”. Also, in assay [8], the “Fold Selectivity (NCM-460/DLD1)” value is reported as 6.0.

As for `O=C1C(=O)c2ccccc2C2=C1SCC1(CCN(C(=O)c3cccc(Cl)c3)CC1)O2` [Compound 55, 1′-(3-chlorobenzoyl)spiro[naphtho[1,2-b][1,4]oxathiine-2,4′-piperidine]-5,6-dione], the IC50 is 3.36 µM in assay [1]; 3.85 µM in assay [2]; 5.74 µM in assay [4]; 3.93 µM in assay [5]; 2.1 µM in assay [6]; 4.57 µM in assay [7]. Moreover, the IC50 in assay [8] is 11.2 µM. In addition, the “E2F-1 Induction (HT-29)” value in assay [3] is listed as “Yes”. Further, in assay [8], the “Fold Selectivity (NCM-460/DLD1)” value is 5.3.

With `O=C1C(=O)c2ccccc2C2=C1SCC1(CCN(Cc3c(F)cccc3Cl)CC1)O2` [Compound 129, 1′-(2-chloro-6-fluorobenzyl)spiro[naphtho[1,2-b][1,4]oxathiine-2,4′-piperidine]-5,6-dione], the IC50 in assay [1] was 4.12 µM; in assay [2], 6.75 µM; in assay [4], 7.05 µM; in assay [5] it was 4.44 µM; in assay [6], 3.98 µM; in assay [7] it was 66.9 µM. Also, in assay [8], the IC50 was 16.5 µM. Besides, the “E2F-1 Induction (HT-29)” value in assay [3] was “Yes”. Further, the “Fold Selectivity (NCM-460/DLD1)” value in assay [8] was determined as 4.1.

Regarding `O=C1C(=O)c2ccccc2C2=C1SCC1(CCN(C[C@@H](O)COc3ccc(Cl)cc3)CC1)O2` [Compound 183, 1′-[(2R)-3-(4-chlorophenoxy)-2-hydroxypropyl]spiro[naphtho[1,2-b][1,4]oxathiine-2,4′-piperidine]-5,6-dione], the IC50 was 0.7 µM in assay [1]; 0.796 µM in assay [2]; 3.88 µM in assay [4]; 2.42 µM in assay [5]; 1.04 µM in assay [6]; 3.1 µM in assay [7]. Further, the IC50 in assay [8] turned out to be 10.2 µM. Also, the “E2F-1 Induction (HT-29)” value in assay [3] is given as “Yes”. Further, the “Fold Selectivity (NCM-460/DLD1)” value in assay [8] turned out to be 9.8.

For `O=C1C(=O)c2ccccc2C2=C1SCC1(CCN(C(=O)Oc3ccc(F)cc3)CC1)O2` [Compound 97, 4-fluorophenyl 5,6-dioxo-5,6-dihydro-1′H-spiro[naphtho[1,2-b][1,4]oxathiine-2,4′-piperidine]-1′-carboxylate], the IC50 stood at 4.93 µM in assay [1]; 6.59 µM in assay [2]; 12.6 µM in assay [4]; 4.28 µM in assay [5]; 4.39 µM in assay [6]; 26 µM in assay [7]. Besides, the IC50 in assay [8] came to 13.3 µM. Besides, the “E2F-1 Induction (HT-29)” value in assay [3] is “YES”. Further, in assay [8], the “Fold Selectivity (NCM-460/DLD1)” value amounted to 3.0.

`CC(C)(C)c1ccc(OC[C@H](O)CN2CCC3(CC2)CSC2=C(O3)c3ccccc3C(=O)C2=O)cc1` [Compound 185, 1′-[(2R)-3-(4-tert-butylphenoxy)-2-hydroxypropyl]spiro[naphtho[1,2-b][1,4]oxathiine-2,4′-piperidine]-5,6-dione]: the IC50 is 1.37 µM in assay [1]; 1.01 µM in assay [2]; 2.47 µM in assay [4]; 4.46 µM in assay [5]; 3.38 µM in assay [6]; 7.42 µM in assay [7]. The IC50 in assay [8] is 13.7 µM. Moreover, the “E2F-1 Induction (HT-29)” value in assay [3] is “YES”. Besides, in assay [8], the “Fold Selectivity (NCM-460/DLD1)” value came out at 4.1.

With `O=C1C(=O)c2ccccc2C2=C1SCC1(CCN(C/C=C/c3ccccc3)CC1)O2` [Compound 139, 1′-[(2E)-3-phenylprop-2-en-1-yl]spiro[naphtho[1.2-b][1,4]oxathiine-2,4′-piperidine]-5,6-dione], the IC50 is 4.17 µM in assay [1]; 4.42 µM in assay [2]; 4.8 µM in assay [5]; 4.32 µM in assay [6]; 27.8 µM in assay [7]; 19.5 µM in assay [8]. The “Fold Selectivity (NCM-460/DLD1)” value in assay [8] is given as 4.5.

As to `O=C1C(=O)c2ccccc2C2=C1SCC1(CCN(CC3CC3)CC1)O2` [Compound 122, 1′-(cyclopropylmethyl)spiro[naphtho[1,2-b][1,4]oxathiine-2,4′-piperidine]-5,6-dione], the IC50 in assay [1] was determined as 1.31 µM; in assay [2], 2.02 µM; in assay [5], 1.45 µM; in assay [6] it was 1.66 µM; in assay [7], 6.02 µM; in assay [8], 3.37 µM. Also, in assay [8], the “Fold Selectivity (NCM-460/DLD1)” value is listed as 2.0.

Consider `O=C1C(=O)c2ccccc2C2=C1SCC1(CCN(CC(O)COc3ccc(F)cc3)CC1)O2` (stereo not shown) [Compound 164, 1′-[3-(4-fluorophenoxy)-2-hydroxypropyl]spiro[naphtho[1,2-b][1,4]oxathiine-2,4′-piperidine]-5,6-dione], for which the IC50 in assay [1] turned out to be 1.42 µM; in assay [2], 2.88 µM; in assay [5], 3.12 µM; in assay [6], 1.52 µM; in assay [7] it was 9.02 µM; in assay [8], 9.74 µM. For the same compound, the “Fold Selectivity (NCM-460/DLD1)” value in assay [8] is reported as 6.4.

With `Cc1ccc(CN2CCC3(CC2)CSC2=C(O3)c3ccccc3C(=O)C2=O)cc1F` [Compound 146, 1′-(3-fluoro-4-methylbenzyl)spiro[naphtho[1,2-b][1,4]oxathiine-2,4′-piperidine]-5,6-dione], the half-maximal inhibitory concentration (IC50) in assay [1] amounted to 4.1 µM; in assay [2] it was 5.77 µM; in assay [5], 12.1 µM; in assay [6] it was 4.53 µM; in assay [7], 38.2 µM; in assay [8], 26.4 µM. In addition, the “Fold Selectivity (NCM-460/DLD1)” value in assay [8] came to 5.8.

With `O=C1C(=O)c2ccccc2C2=C1SCC1(CCN(C(=O)Nc3ccc(F)cc3)CC1)O2` [Compound 85, N-(4-fluorophenyl)-5,6-dioxo-5,6-dihydro-1′H-spiro[naphtho[1,2-b][1,4]oxathiine-2,4′-piperidine]-1′-carboxamide], the IC50 was found to be 1.14 µM in assay [1]; 1.88 µM in assay [2]; 1.32 µM in assay [5]; 1.29 µM in assay [6]; 6.38 µM in assay [7]; 3.31 µM in assay [8]. In addition, the “Fold Selectivity (NCM-460/DLD1)” value in assay [8] turned out to be 2.6.

`O=C1C(=O)c2ccccc2C2=C1SCC1(CCN(Cc3ccc(F)c(Cl)c3)CC1)O2` [Compound 142, 1′-(3-chloro-4-fluorobenzyl)spiro[naphtho[1,2-b][1,4]oxathiine-2,4′-piperidine]-5,6-dione]: the IC50 in assay [1] worked out at 10.5 µM; in assay [2] it was 6.93 µM; in assay [5] it was 8.72 µM; in assay [6] it was 4.25 µM; in assay [7], 44.2 µM; in assay [8] it was 15.1 µM. Besides, the “Fold Selectivity (NCM-460/DLD1)” value in assay [8] was 3.6.

Take `Cc1noc(C)c1C(=O)N1CCC2(CC1)CSC1=C(O2)c2ccccc2C(=O)C1=O` [Compound 40, 1′-[(3,5-dimethylisoxazol-4-yl)carbonyl]spiro[naphtho[1,2-b][1,4]oxathiine-2,4′-piperidine]-5,6-dione]: the IC50 amounted to 8.39 µM in assay [1]; 14.4 µM in assay [2]; 3.92 µM in assay [5]; 4.09 µM in assay [6]; 15.5 µM in assay [7]; 10.2 µM in assay [8]. Further, the “Fold Selectivity (NCM-460/DLD1)” value in assay [8] is 2.5.
